# Measured values taken from patent US6797819B1, “Alkaloids” (President and Fellows of Harvard College, priority 1998, dated 2004).
# Entries after “also recorded” stand apart in the source; their conditions may differ.
# Test system: VSVG-GFP trafficking in BSC1 cells
# Format: cell-based, monkey
Compound,effect on the secretory pathway,ability to block protein trafficking from the golgi apparatus to the plasma membrane,inhibition of VSVG-GFP movement from the golgi apparatus to the plasma membrane,inhibition of the movement of a specific cellular protein from the golgi apparatus to the plasma membrane
"COc1ccc2c3c1O[C@H]1C[C@@H](O)C=C[C@@]31CCN(C)C2 [galanthamine, reference compound]",no observable effect on the secretory pathway,–,–,–
COc1ccc(CS[C@@H]2CC(=NOCc3ccccc3)C[C@H]3Oc4c(Br)c(OCC5CC5)cc5c4[C@]32C[C@@H](CO)NC5)cc1 [secramine],–,block protein trafficking from the golgi apparatus to the plasma membrane,potent inhibitor of VSVG-GFP movement from the golgi apparatus to the plasma membrane; also recorded: Golgi to PM Blocker,potent inhibitor of the movement of a specific cellular protein from the golgi apparatus to the plasma membrane
